Where a SMILES comes first, the peptide text is derived from it. Where no end group is shown, it is not given here.
Experiments:
ExoI nuclease activity = settings: radiolabeled ssDNA substrate
RecQ = RecQ (Escherichia coli, UniProt P15043); settings: read-out: Kd, app; SSB-Ct peptide binding by RecQ; cited from earlier work
PriA = PriA (Escherichia coli, UniProt P17888); settings: read-out: Kd, app; SSB-Ct peptide binding by PriA; cited from earlier work
[1] = biological target: Topoisomerase III (TopoIII)/C-terminal tail of E. coli SSB (Escherichia coli, UniProt P14294); experiment: Topoisomerase III peptide binding (fluorescence anisotropy); settings: 100 μM final concentration, 1% DMSO
Description: TopoIII was titrated into 10 nM fluorescent peptide, as described above for the ExoI binding assays. The buffer conditions for this binding assay were: 300 mM NaCl, 20 mM Tris pH 8.0, 10% Glycerol, 1 mM BME (Beta-Mercaptoethanol), and 1% DMSO. Concentrations of TopoIII used are given on the graph in FIG. 24. Changes in anisotropy upon binding were read using PanVera Beacon 2000 FP.
Either unlabeled peptide or various compounds were then added to a final concentration of 100 μM. These compounds and unlabeled peptide were dissolved in DMSO and their addition brought the final concentration of DMSO to 1%.

[2] = biological target: T1, Exonuclease I/SSB-Ct complex (Escherichia coli, UniProt P04995); experiment: Fluorescence polarization competition: inhibition of fluorescein-SSB C-terminal peptide binding to Exonuclease I (HTS and Ki determination); settings: FIG. 7, unlabeled peptide competition
T1 sequence (P04995 whole entry, looked up): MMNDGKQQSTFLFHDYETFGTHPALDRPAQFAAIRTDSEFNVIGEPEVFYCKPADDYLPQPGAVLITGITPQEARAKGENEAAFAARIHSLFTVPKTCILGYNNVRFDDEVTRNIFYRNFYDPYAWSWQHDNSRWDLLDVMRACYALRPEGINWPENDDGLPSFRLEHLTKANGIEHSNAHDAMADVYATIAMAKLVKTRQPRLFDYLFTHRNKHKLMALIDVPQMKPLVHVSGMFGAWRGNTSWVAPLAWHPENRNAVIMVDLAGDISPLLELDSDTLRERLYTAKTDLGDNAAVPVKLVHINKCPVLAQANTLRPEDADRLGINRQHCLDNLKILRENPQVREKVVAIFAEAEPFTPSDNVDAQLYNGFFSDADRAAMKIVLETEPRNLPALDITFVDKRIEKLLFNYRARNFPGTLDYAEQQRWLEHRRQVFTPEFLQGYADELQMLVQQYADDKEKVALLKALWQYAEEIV
Description: Peptide binding assays were performed in solution, using the peptides from above, and Exonuclease I, in the absence or presence of various compounds. Different amounts of Exonuclease I (ExoI) were used in the peptide binding assays. […] Fluorescence polarization (FP) was measured at 25° C. in triplicate; the average FP value was plotted with standard deviation of the mean shown as error.
Concentrated Exonuclease I was dialyzed overnight into 2 liters dilution buffer (DB) (20 mM Tris pH 8.0 HCl, 100 mM NaCl, 1 mM MgCl2, and 1 mM Beta-Mercaptoethanol). […] After sitting at room temperature for 5 min, a liquid handling system was used to aliquot this solution into 384 well plates providing 30 microliters/well. One microliter of 1 mM compound was then added. The screened compounds were obtained from the ChemBridge DIVERSet library (ChemBridge Corporation, San Diego, Calif.), from the Maybridge HitFinder library (Thermo Fisher Scientific, Waltham, Mass.), from the ChemDiv library (Chemical Diversity Labs, San Diego, Calif.), or from the Known Bioactive Library—KBA01.
The FP (fluorescence polarization) values for each well were read using a (plate reader) 5 minutes after compound addition.
Increasing amounts of compound were titrated into peptide protein mixture until FP values were lowered to values given by only fluorescently labeled peptide alone. Ki values were determined using the Ki calculator for fluorescence-based competitive binding assays of Prof. Shaomeng Wang, University of Michigan (Nikolovska-Coleska et al., 2004, Anal. Biochem. 332: 261-273).

ExoI = biological target: T2, ExoI (Escherichia coli, UniProt P04995); format: binding; settings: FIG. 26A
T2 construct: made in house

PriA, sequence (P17888 whole entry): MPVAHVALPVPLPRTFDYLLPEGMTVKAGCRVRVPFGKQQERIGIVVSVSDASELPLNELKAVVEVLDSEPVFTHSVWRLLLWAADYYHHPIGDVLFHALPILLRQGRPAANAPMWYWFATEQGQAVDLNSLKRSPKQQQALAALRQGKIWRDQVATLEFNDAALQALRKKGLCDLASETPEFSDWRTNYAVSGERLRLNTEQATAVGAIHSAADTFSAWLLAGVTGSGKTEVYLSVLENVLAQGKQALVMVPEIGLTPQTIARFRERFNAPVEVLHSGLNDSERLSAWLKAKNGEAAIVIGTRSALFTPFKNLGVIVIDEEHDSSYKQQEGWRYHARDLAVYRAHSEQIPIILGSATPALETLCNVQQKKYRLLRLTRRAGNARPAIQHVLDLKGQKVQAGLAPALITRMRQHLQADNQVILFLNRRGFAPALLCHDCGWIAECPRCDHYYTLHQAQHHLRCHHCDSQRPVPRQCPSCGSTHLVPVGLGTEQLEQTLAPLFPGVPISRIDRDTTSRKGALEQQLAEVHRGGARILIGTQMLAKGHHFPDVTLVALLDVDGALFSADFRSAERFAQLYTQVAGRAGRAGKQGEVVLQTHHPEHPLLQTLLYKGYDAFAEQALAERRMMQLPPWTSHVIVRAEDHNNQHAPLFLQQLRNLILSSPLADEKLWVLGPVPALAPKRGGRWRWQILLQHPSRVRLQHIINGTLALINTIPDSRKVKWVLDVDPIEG
RecQ, sequence (P15043 whole entry): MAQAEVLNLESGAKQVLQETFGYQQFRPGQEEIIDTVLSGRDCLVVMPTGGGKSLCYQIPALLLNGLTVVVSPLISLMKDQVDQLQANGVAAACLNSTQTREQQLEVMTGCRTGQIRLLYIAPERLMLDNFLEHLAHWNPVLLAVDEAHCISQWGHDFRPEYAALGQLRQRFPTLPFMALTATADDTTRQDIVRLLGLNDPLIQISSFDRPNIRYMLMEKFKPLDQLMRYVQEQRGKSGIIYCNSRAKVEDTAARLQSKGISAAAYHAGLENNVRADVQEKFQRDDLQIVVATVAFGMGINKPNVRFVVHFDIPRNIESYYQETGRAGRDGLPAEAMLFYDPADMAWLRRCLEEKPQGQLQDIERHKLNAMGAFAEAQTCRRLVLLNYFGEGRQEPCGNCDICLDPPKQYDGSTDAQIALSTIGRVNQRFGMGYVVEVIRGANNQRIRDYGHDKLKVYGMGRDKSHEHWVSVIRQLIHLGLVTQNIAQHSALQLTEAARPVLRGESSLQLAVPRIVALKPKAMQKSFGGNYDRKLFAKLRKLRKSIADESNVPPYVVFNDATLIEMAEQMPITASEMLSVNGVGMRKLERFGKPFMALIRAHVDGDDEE
Topoisomerase III (TopoIII)/C-terminal tail of E. coli SSB, sequence (P14294 whole entry): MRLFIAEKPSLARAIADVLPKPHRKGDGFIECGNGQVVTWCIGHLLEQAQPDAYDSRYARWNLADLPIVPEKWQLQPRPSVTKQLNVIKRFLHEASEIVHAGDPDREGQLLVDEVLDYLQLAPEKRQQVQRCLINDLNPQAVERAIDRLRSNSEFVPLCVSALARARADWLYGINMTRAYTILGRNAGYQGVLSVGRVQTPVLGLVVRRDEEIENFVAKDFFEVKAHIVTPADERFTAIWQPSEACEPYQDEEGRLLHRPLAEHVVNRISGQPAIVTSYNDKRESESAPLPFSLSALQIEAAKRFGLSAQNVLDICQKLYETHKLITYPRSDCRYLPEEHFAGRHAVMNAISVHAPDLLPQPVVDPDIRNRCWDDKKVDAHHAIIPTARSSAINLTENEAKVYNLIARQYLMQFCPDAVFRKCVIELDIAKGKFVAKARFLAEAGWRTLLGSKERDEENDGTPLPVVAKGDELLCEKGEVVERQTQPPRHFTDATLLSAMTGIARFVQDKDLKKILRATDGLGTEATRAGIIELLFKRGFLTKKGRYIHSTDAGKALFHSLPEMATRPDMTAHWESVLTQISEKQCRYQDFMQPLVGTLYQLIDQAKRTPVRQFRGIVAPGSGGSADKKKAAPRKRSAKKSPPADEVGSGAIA

## CC[C@H](C)[C@H](NC(=O)[C@H](CC(=O)O)NC(=O)[C@H](CC(=O)O)NC(=O)[C@H](CC(=O)O)NC(=O)[C@H](Cc1ccccc1)NC(=O)[C@H](CC(=O)O)NC(=O)[C@H](CCSC)NC(=O)[C@@H](N)Cc1c[nH]c2ccccc12)C(=O)N1CCC[C@H]1C(=O)N[C@@H](Cc1ccccc1)C(=O)O [WT peptide] (H-WMDFDDDIPF-OH; N-terminus assumed)
ExoI nuclease activity
  SSB stimulation of ExoI nuclease activity: no apparent effect
RecQ
  Kd: 6 µM
PriA
  Kd: 2 µM
[1]
  inhibition of fluorescent peptide binding to TopoIII (anisotropy): did not bring the anisotropy values down to the baseline

## DDDIPF: unlabeled SSB C-terminal peptide with three residues (MDF) missing from the N-terminus [reference compound]
[2]
  amount needed to titrate away the fluorescent peptide, relative to full-length peptide: ten-fold more

## WDFMDDPFID [F-mixed]
ExoI
  ExoI binding to control peptides relative to F-SSB-Ct: minimal

Reference: patent publication US8415393B2, “Anti-bacterial drug targeting of genome maintenance interfaces” (Wisconsin Alumni Research Foundation, priority 2007, dated 2013)
